Consider three compounds from ChEMBL document CHEMBL4334526, “Synthesis of Peptoid-Based Class I-Selective Histone Deacetylase Inhibitors with Chemosensitizing Properties” (J Med Chem, 2019).

As usually defined, the inhibition is the share of the control response that was lost under treatment. The pIC50 is the negative decadic logarithm of the IC50, by convention in mol/L.

pIC50: −log10 of the molar value. Active and inactive are the calls of the source. The calls are words filed in the database; no cut-off is given here.

Assay [1] deals with T1, Class 1 histone deacetylase (Homo sapiens, UniProt Q13547+O15379+Q92769+Q9BY41). Description: Inhibition of class 1 HDAC in human Cal27CisR cells assessed as potentiation of cisplatin-induced cytotoxicity by measuring combination index at 1 uM in presence of 1 uM cisplatin by MTT assay based Chou-Talalay analysis. It counts as cell-based.
Assay [2] addresses Histone deacetylase 3/Nuclear receptor corepressor 2 (HDAC3/NCoR2) (Homo sapiens) (UniProt O15379+Q9Y618). Description: Inhibition of human recombinant full length C-terminal His-tagged HDAC3 (1 to 428 residues)/N-terminal GST-tagged NCOR2 (395 to 489 residues) expressed in baculovirus infected Sf9 insect cells at 10 uM using Boc-Lys(epsilon-acetyl)-AMC as substrate incubated for 90 mins by fluorescence assay relative to control.

In assay [3] the target is T1, Class 1 histone deacetylase. Kind of assay: Inhibition of class 1 HDAC in human Cal27CisR cells assessed as potentiation of cisplatin-induced cytotoxicity by measuring combination index at 1 uM in presence of 100 uM cisplatin by MTT assay based Chou-Talalay analysis. Type of assay: cell-based.
For assay [4] the target is unchanged. Kind of assay: Inhibition of class 1 HDAC in human Cal27CisR cells assessed as potentiation of cisplatin-induced cytotoxicity by measuring combination index at 1 uM in presence of […] cisplatin by MTT assay based Chou-Talalay analysis. Type of assay: cell-based. On the technique in general: Tetrazolium dyes change colour on reduction, which living cells bring about.

The target is the same in assay [5]. To be noted: CAL-27.
Description: Inhibition of class 1 HDAC in human CAL27 cells assessed as potentiation of cisplatin-induced cytotoxicity by measuring combination index at 0.5 uM in presence of 1 uM cisplatin by MTT assay based Chou-Talalay analysis
Assay [6] shares this target. Kind of assay: Inhibition of class 1 HDAC in human Cal27CisR cells assessed as potentiation of cisplatin-induced cytotoxicity by measuring combination index at […] in presence of 100 uM cisplatin by MTT assay based Chou-Talalay analysis. It counts as cell-based.
Assay [7] has the same target.
Description: Inhibition of class 1 HDAC in human Cal27CisR cells assessed as potentiation of cisplatin-induced cytotoxicity by measuring combination index at 0.5 uM in presence of 10 uM cisplatin by MTT assay based Chou-Talalay analysis
For assay [8] the target is unchanged. Kind of assay: Inhibition of class 1 HDAC in human Cal27CisR cells assessed as potentiation of cisplatin-induced cytotoxicity by measuring combination index at […] in presence of 32 uM cisplatin by MTT assay based Chou-Talalay analysis. It counts as cell-based.
The target is the same in assay [9]. Kind of assay: Inhibition of class 1 HDAC in human CAL27 cells assessed as potentiation of cisplatin-induced cytotoxicity by measuring combination index at 1 uM in presence of 1 uM cisplatin by MTT assay based Chou-Talalay analysis. It counts as cell-based. To be noted: CAL-27.
The target is the same in assay [10]. To be noted: CAL-27. The source holds these as a separate data set.
Description: Inhibition of class 1 HDAC in human CAL27 cells assessed as potentiation of cisplatin-induced cytotoxicity by measuring combination index at 0.5 uM in presence of 0.32 uM cisplatin by MTT assay based Chou-Talalay analysis
The target is the same in assay [11]. This is another data set of the same source.
Description: Inhibition of class 1 HDAC in human Cal27CisR cells assessed as potentiation of cisplatin-induced cytotoxicity by measuring combination index at 0.5 uM in presence of 3.2 uM cisplatin by MTT assay based Chou-Talalay analysis
Assay [12] has the same target. Description: Inhibition of class 1 HDAC in human Cal27CisR cells assessed as potentiation of cisplatin-induced cytotoxicity by measuring combination index at […] in presence of 1 uM cisplatin by MTT assay based Chou-Talalay analysis. Type of assay: cell-based.
The target is the same in assay [13]. The following applies: CAL-27. This is another data set of the same source.
Description: Inhibition of class 1 HDAC in human CAL27 cells assessed as potentiation of cisplatin-induced cytotoxicity by measuring combination index at 0.5 uM in presence of 0.1 uM cisplatin by MTT assay based Chou-Talalay analysis
The target in assay [14] is Histone deacetylase 3/Nuclear receptor corepressor 2 (HDAC3/NCoR2) (Homo sapiens, UniProt O15379). Description: biochemical. It counts as cell-based, Sf9.
Description: Inhibition of human recombinant full length C-terminal His-tagged HDAC3 (1 to 428 residues)/N-terminal GST-tagged NCOR2 (395 to 489 residues) expressed in baculovirus infected Sf9 insect cells using Boc-Lys(epsilon-acetyl)-AMC as substrate incubated for 90 mins by fluorescence assay
The target of assay [15] is T1, Class 1 histone deacetylase. Description: Inhibition of class 1 HDAC in human CAL27 cells assessed as potentiation of cisplatin-induced cytotoxicity by measuring combination index at […] in presence of 10 uM cisplatin by MTT assay based Chou-Talalay analysis. It counts as cell-based. To be noted: CAL-27.
Assay [16] has the same target. Kind of assay: (§1) Inhibition of class 1 HDAC in human CAL27 cells assessed as potentiation of cisplatin-induced cytotoxicity by measuring combination index at 1 uM in presence of […] cisplatin by MTT assay based Chou-Talalay analysis. It counts as cell-based. The following applies: CAL-27.
Assay [17] shares this target. To be noted: CAL-27. The source holds these as a separate data set.
Description: Inhibition of class 1 HDAC in human CAL27 cells assessed as potentiation of cisplatin-induced cytotoxicity by measuring combination index at 0.5 uM in presence of 3.2 uM cisplatin by MTT assay based Chou-Talalay analysis
For assay [18] the target is unchanged. The description is as §1. To be noted: CAL-27. Type of assay: cell-based. The source holds these as a separate data set.
The target is the same in assay [19]. Description: Inhibition of class 1 HDAC in human CAL27 cells assessed as potentiation of cisplatin-induced cytotoxicity by measuring combination index at […] in presence of 1 uM cisplatin by MTT assay based Chou-Talalay analysis. The following applies: CAL-27. Type of assay: cell-based.
Assay [20] has the same target. Description: Inhibition of class 1 HDAC in human CAL27 cells assessed as potentiation of cisplatin-induced cytotoxicity by measuring combination index at […] in presence of […] cisplatin by MTT assay based Chou-Talalay analysis. To be noted: CAL-27. It counts as cell-based.
Assay [21] shares this target. Description: Inhibition of class 1 HDAC in human Cal27CisR cells assessed as potentiation of cisplatin-induced cytotoxicity by measuring combination index at […] in presence of […] cisplatin by MTT assay based Chou-Talalay analysis. It counts as cell-based.
Assay [22] has the same target. This is another data set of the same source.
For assay [23] the target is unchanged. The following applies: CAL-27. The source holds these as a separate data set.
Description: Inhibition of class 1 HDAC in human CAL27 cells assessed as potentiation of cisplatin-induced cytotoxicity by measuring combination index at 0.5 uM in presence of 10 uM cisplatin by MTT assay based Chou-Talalay analysis
Assay [24] shares this target. Description: Inhibition of class 1 HDAC in human CAL27 cells assessed as potentiation of cisplatin-induced cytotoxicity by measuring combination index at 1 uM in presence of 10 uM cisplatin by MTT assay based Chou-Talalay analysis. It counts as cell-based. The following applies: CAL-27.
Assay [25] has the same target. Description: Inhibition of class 1 HDAC in human CAL27 cells assessed as potentiation of cisplatin-induced apoptosis assessed as increase in caspase-3/7 activation at 5 uM preincubated for 48 hrs followed by cisplatin addition and measured after 24 hrs in presence of pan caspase inhibitor QVD by CellEvent caspase 3/7 green detection reagent/Hoechst 33342 staining based imaging analysis. It counts as cell-based. To be noted: CAL-27.

The next assay addresses Histone deacetylase 2 (Homo sapiens, UniProt Q92769). Description: Inhibition of recombinant human full length C-terminal FLAG-tagged HDAC2 expressed in baculovirus infected Sf9 insect cells using Boc-Lys(epsilon-acetyl)-AMC as substrate incubated for 90 mins by fluorescence assay. Type of assay: cell-based.
A further assay deals with A2780. Description: Cytotoxicity against human A2780 cells assessed as reduction in cell survival measured after 72 hrs by MTT assay. Type of assay: functional, cell-based. To be noted: A2780, 72 h.
The target in assay [26] is T1, Class 1 histone deacetylase. Kind of assay: Inhibition of class 1 HDAC in human CAL27 cells assessed as potentiation of cisplatin-induced cytotoxicity by measuring fold reduction in cisplatin IC50 at 5 uM preincubated for 48 hrs followed by cisplatin addition and measured after 72 hrs by MTT assay relative to cisplatin IC50. The following applies: CAL-27. It counts as cell-based.

The next assay relates to CAL-27. Kind of assay: Induction of apoptosis in human CAL27 cells assessed as accumulation at sub-G1 phase at 5 uM after 48 hrs by propidium iodide staining based flow cytometry. It counts as functional, cell-based. (In general: Flow cytometry measures light scatter and fluorescence of single cells or particles in a stream.)
For assay [27], the target named is T1, Class 1 histone deacetylase. To be noted: CAL-27. This is another data set of the same source.
Description: Inhibition of class 1 HDAC in human CAL27 cells assessed as potentiation of cisplatin-induced cytotoxicity by measuring combination index at 0.25 uM in presence of 0.32 uM cisplatin by MTT assay based Chou-Talalay analysis
For assay [28] the target is unchanged. The source holds these as a separate data set.
Description: Inhibition of class 1 HDAC in human Cal27CisR cells assessed as potentiation of cisplatin-induced cytotoxicity by measuring combination index at 0.10 uM in presence of 1 uM cisplatin by MTT assay based Chou-Talalay analysis

T1 sequence (O15379 whole entry, looked up, the tested form may be a part): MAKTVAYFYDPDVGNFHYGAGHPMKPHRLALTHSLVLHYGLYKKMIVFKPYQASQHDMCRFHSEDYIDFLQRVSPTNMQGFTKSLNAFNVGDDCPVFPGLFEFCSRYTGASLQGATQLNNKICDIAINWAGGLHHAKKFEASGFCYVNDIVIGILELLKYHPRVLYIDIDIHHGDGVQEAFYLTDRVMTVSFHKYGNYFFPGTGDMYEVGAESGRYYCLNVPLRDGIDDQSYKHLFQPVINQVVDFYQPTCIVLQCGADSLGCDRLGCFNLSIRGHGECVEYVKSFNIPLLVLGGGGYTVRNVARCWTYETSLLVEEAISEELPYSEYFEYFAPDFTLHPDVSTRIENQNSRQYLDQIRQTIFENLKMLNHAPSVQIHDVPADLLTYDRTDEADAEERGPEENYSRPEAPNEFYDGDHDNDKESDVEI
T1 sequence (Q13547 whole entry, looked up, the tested form may be a part): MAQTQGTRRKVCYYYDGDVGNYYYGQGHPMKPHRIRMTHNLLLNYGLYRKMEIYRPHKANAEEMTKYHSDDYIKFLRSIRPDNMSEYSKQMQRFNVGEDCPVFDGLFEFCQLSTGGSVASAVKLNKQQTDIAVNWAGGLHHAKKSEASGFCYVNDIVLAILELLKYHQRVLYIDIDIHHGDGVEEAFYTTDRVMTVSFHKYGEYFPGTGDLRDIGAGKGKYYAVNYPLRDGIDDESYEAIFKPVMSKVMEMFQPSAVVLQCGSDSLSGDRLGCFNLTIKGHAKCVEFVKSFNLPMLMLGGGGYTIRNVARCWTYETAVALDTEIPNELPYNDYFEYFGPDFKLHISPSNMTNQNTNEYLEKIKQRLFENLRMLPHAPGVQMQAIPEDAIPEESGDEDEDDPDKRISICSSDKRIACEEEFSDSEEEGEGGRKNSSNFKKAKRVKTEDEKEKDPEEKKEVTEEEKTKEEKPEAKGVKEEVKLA
T1 sequence (Q92769 whole entry, looked up, the tested form may be a part): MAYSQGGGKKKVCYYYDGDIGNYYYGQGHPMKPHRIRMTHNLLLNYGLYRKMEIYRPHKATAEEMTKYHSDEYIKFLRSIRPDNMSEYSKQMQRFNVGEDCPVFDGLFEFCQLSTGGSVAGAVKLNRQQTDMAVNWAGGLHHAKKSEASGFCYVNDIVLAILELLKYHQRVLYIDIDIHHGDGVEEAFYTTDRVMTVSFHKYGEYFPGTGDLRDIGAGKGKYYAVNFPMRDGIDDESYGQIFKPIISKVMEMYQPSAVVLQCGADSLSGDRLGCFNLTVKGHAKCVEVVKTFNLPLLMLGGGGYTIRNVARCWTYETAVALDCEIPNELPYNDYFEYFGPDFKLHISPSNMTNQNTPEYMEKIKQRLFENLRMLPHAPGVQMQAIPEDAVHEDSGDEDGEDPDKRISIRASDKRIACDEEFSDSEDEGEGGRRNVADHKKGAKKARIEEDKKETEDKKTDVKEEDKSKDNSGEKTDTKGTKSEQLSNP
T1 sequence (Q9BY41 whole entry, looked up, the tested form may be a part): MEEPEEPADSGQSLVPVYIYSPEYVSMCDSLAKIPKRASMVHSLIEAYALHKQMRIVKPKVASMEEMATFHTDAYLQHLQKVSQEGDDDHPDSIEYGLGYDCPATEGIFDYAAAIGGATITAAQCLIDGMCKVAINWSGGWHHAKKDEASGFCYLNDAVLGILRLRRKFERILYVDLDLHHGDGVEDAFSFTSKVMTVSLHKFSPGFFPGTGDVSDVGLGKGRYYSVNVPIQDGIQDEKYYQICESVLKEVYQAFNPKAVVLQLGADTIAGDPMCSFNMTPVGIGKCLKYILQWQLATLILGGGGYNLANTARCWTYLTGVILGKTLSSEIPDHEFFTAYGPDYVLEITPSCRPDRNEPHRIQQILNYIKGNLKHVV
Chain of Histone deacetylase 3/Nuclear receptor corepressor 2 (HDAC3/NCoR2) (O15379 whole entry): as the sequence (O15379 whole entry, looked up, the tested form may be a part) above
Chain of Histone deacetylase 3/Nuclear receptor corepressor 2 (HDAC3/NCoR2) (Q9Y618 whole entry, further chain): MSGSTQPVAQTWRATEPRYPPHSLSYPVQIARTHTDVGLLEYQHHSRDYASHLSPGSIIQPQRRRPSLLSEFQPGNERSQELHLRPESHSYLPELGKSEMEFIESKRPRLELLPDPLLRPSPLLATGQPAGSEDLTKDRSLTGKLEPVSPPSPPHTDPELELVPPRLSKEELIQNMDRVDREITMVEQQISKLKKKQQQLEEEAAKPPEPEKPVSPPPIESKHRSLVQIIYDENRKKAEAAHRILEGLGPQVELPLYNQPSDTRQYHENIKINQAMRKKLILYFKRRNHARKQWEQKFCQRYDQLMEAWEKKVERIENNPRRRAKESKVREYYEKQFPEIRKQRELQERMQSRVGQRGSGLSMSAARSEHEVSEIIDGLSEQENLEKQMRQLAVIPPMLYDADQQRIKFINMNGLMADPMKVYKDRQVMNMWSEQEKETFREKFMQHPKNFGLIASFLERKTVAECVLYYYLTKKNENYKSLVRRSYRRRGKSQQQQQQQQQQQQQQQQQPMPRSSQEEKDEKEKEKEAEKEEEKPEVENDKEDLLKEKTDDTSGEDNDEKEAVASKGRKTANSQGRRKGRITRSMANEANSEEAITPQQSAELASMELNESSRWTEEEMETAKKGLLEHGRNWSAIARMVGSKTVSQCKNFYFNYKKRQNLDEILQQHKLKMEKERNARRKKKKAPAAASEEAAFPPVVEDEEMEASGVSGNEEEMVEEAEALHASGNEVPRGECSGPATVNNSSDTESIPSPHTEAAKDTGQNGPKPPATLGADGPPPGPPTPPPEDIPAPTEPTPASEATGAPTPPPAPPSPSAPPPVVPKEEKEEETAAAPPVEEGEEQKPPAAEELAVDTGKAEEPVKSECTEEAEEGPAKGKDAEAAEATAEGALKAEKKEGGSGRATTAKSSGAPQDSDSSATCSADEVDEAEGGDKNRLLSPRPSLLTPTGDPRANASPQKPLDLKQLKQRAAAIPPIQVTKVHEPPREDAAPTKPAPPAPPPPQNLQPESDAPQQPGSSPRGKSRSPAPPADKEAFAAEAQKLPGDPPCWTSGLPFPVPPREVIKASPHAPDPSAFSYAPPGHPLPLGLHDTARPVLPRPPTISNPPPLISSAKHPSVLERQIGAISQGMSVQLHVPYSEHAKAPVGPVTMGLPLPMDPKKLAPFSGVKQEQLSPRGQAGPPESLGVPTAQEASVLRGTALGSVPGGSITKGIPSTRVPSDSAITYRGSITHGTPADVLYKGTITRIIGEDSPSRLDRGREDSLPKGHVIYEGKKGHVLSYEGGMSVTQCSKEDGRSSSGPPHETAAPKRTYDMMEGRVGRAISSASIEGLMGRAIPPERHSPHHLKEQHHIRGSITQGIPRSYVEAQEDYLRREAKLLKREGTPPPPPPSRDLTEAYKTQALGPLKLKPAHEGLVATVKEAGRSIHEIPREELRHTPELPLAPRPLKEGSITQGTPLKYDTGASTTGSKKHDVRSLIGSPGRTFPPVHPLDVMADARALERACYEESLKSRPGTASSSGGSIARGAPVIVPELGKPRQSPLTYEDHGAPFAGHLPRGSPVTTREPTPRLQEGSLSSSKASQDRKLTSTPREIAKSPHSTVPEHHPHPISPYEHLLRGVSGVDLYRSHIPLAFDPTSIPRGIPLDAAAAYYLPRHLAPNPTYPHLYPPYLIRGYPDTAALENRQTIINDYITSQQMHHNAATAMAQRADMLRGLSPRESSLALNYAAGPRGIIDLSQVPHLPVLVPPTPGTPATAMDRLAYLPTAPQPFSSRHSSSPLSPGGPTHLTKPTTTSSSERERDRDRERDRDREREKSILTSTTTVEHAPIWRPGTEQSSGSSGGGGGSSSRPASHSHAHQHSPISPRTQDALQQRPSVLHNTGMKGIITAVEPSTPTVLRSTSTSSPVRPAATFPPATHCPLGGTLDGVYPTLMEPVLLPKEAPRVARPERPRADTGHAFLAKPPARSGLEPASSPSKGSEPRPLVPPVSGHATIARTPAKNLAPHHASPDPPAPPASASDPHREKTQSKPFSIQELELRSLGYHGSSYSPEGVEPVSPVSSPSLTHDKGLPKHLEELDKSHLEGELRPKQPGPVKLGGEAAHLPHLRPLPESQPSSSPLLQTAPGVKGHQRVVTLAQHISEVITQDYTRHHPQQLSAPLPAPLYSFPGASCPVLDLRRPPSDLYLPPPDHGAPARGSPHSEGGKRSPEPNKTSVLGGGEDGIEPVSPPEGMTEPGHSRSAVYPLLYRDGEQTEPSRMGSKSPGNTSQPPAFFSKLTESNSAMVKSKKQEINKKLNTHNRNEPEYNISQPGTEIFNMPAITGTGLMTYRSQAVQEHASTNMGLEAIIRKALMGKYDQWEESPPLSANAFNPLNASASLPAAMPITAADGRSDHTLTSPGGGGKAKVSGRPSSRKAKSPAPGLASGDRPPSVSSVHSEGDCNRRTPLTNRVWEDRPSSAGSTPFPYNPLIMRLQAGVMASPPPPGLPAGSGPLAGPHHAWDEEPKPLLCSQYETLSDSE
Chain of Histone deacetylase 2 (Q92769 whole entry): as the sequence (Q92769 whole entry, looked up, the tested form may be a part) above

As to `Cc1cc(C)cc(C(=O)N(CC(=O)NCc2ccccc2)Cc2ccc(C(=O)Nc3cc(-c4ccccc4)ccc3N)cc2)c1`, the CI in assay [1] is less than 0.2; in [3], 0.08; in assay [4] it was 0.81; in assay [5], 0.59; in [6], 0.19; in [7] it was 0.76. Further, the CI in assay [8] is 0.18; in assay [9], 0.46; in [10], 0.7; in assay [11], less than 0.2; in assay [12], less than 0.2; in assay [13], 0.5. The CI in assay [15] turned out to be 0.08; in [16], 0.2; in [17], 0.21; in assay [18], 0.52; in assay [19], 0.23; in [20], 0.34. For the same compound, the CI in assay [21] was 0.89; in assay [22], less than 0.2; in assay [23] it was 0.18; in assay [24], 0.16. Further, the inhibition in [2] was less than 15%. The compound further gave a pIC50 in assay [14] of less than 5.00.
Take `Cc1cc(C)cc(C(=O)N(CCCCCC(=O)Nc2cc(-c3ccccc3)ccc2N)CC(=O)NCc2ccccc2)c1`: the CI in assay [1] is less than 0.2; in assay [3], 0.06; in assay [4], less than 0.2; in assay [6] it was 0.09; in [8], 0.74; in assay [9], less than 0.2. Moreover, the CI is less than 0.2 in assay [12]; 0.12 in assay [15]; less than 0.2 in [16]; less than 0.2 in assay [18]; less than 0.2 in assay [19]; less than 0.2 in assay [20]. For the same compound, the CI in assay [21] is less than 0.2; in assay [24] it was 0.53. Besides, the inhibition entry in [25] is “inactive”. In addition, the inhibition in assay [2] is 20%. Moreover, the pIC50 is 5.74 on Histone deacetylase 2 and 4.77 with A2780. Further, the Ratio IC50 in [26] was found to be 5.26. In the assay with CAL-27, the outcome was inactive.
On to `CN(C)c1ccc(C(=O)N(CC(=O)NCc2ccccc2)Cc2ccc(C(=O)Nc3ccccc3N)cc2)cc1`, for which the pIC50 at Histone deacetylase 2 was 6.55; in the assay on A2780 it was 5.62; in assay [14] it was 6.23. Moreover, the CI in assay [27] is 0.39; in assay [5], 0.16; in assay [7], 0.12; in assay [10], 0.32; in assay [11], 0.25; in assay [28], less than 0.2. For the same compound, the CI in assay [13] came out at 0.4; in [17] it was 0.07; in assay [22] it was 0.03; in assay [23], 0.07.
